The values below are quoted from earlier work in US20240408056A1, “METHODS FOR REPAIRING NERVE DAMAGE USING PKC ACTIVATING THERAPEUTIC AGENTS” (priority 2023, published 2024).

The structures appear in SMILES notation. pKi: −log10 of the molar value. Like-named read-outs stand apart in the source and are kept apart here.

This data set concerns the target PKC.
Setting [1] is: A-ring bryologs, read-out: affinity for PKC.

In the case of `CCCCCCCC(=O)OC1C(=CC(=O)OC)CC2CC(CO)OC(=O)CC(O)CC3CCCC(CC4CCOC(C=CC(C)(C)C1(O)O2)O4)O3` (centres unmarked) [Analog 1], the pKi (Table 1, Bryologs, read-out: PKC Affinity) is 9.60. Moreover, under “compared with Bryostatin-1 and the other bryologs”, the “affinity for PKC (in words)” value is reported as “highest affinity for PKC”.

Regarding `CCCCCCCC(=O)OC1C(=CC(=O)OC)CC2CC(CO)OC(=O)CC(O)CCOC(C(C)(C)C)CC3CCOC(C=CC(C)(C)C1(O)O2)O3` (centres unmarked) [bryolog 3], the pKi under setting [1] is 8.19.

For the compound `CCCCCCCC(=O)OC1C(=CC(=O)OC)CC2CC(CO)OC(=O)CC(O)CCOC(CCCc3ccc(Br)cc3)CC3CCOC(C=CC(C)(C)C1(O)O2)O3` (centres unmarked) [bryolog 5], the pKi under setting [1] is 8.72.

As to `CCCCCCCC(=O)OC1C(=CC(=O)OC)CC2CC(CO)OC(=O)CC(O)CCOC(c3ccccc3)CC3CCOC(C=CC(C)(C)C1(O)O2)O3` (centres unmarked) [bryolog 4], the pKi under setting [1] is 8.64.
